Experimental data taken from EP0440298A1, “Topical preparations for treating human nails” (BROCADES PHARMA B.V., priority 1990, dated 1991).

How the values were obtained:
[1] = Weight increase of nail clippings during immersion in a lotion (Example 1); set-up: species or system Human
Protocol: Solutions (lotions) were prepared, containing (v/v) 40% of distilled water, 40% of methyl ethyl ketone and 20% of isopropyl alcohol.
To these lotions were added salicylic acid, NAC, 1,4-dithiothreitol or mercaptoethylamine, in w/v concentrations as further specified in Table 1.
To distilled water were added glutathione, mercaptoethanol or urea, in w/v concentrations as further specified in Table 1.
(§1) Human nail clippings were immersed in the test and control lotions at ambient temperature and their weight increase expressed as % of their original weight.

[2] = Penetration of the hydrophilic dye eosine in nail clippings during immersion in a lotion (Example 2); type: in vitro ADME, Human; settings: lotion with 17% NAC and 1% of eosine; immersion 48 hours at room temperature; microscopic freeze sections
Protocol: (§2) To a similar solution (lotion) as in Example 1, consisting of (v/v) 40% distilled water, 40% of methyl ethyl ketone and 20% of isopropyl alcohol, were added (w/v) 17% of NAC and 1% of eosine.
(§3) Human nail clippings were immersed in this liquid and in the same liquid without NAC (n = 2 x 3) during 48 hours at room temperature, after which the colour penetration was estimated on microscopic freeze sections.

[3] = Penetration of eosine in nail clippings after immersion in a lotion (pretreatment, Example 3); type: in vitro ADME, Human; settings: pretreatment in NAC lotion lacking eosine, then 24 hours in lotion with 1% eosine lacking NAC
Protocol: as §2, §3
The same experimental set-up as in Example 2 was used, except that the nail clippings were first immersed in lotions lacking eosine, and subsequently during 24 hours in lotions containing 1% eosine but lacking NAC. n was again 2 x 3.

[4] = Weight increase of nail clippings on dorsal application of a film-forming lotion (Example 4); set-up: species or system Human; settings: film-forming lotion with 20 parts of NAC painted on dorsal surface twice a day; after 3 days (no further change up to 6 days)
Protocol: (§4) A film-forming lotion was prepared, consisting by weight of 17.5 parts of distilled water, 17.5 parts of ethanol, 20 parts of acetone, 25 parts of polyvinylpyrrolidone VA-S630 and 20 parts of NAC. The control film-forming lotion lacked the NAC.
(§5) Human nail clippings (n = 2 x 3) were laid on pads soaked in saline, and the two types of film-forming lotion were painted on their dorsal surface twice a day. The weights of the clippings were determined after 3, 4, 5 and 6 days.

[5] = Penetration of eosine in nail clippings after dorsal application of a film-forming lotion (Example 4); type: in vitro ADME, Human; settings: after 6 days of film-forming lotion treatment, then 24 hours in 1% eosine solution without NAC
Protocol: as §4, §5
After the above 6 days of treatment, the (2 x 3) clippings were rinsed and placed for 24 hours in a solution of 1% eosine, as described in Example 2 (without NAC), and then further processed for the microscopic estimation of dye penetration as in Example 2. The average penetration of the dye through the NAC-penetrated nails was 48% of the nail thickness, compared to 6% in the controls.

[6] = Effect of NAC-containing lotion on the penetration of 14C oxiconazole in nail discs (Example 6); type: in vitro ADME, human; settings: 20% w/v NAC lotion with 1% w/v oxiconazole; 48 hours at 30°C
Protocol: A 20% w/v NAC-containing lotion and a control lotion were prepared as in Example 1.
To both these preparations was added 1% w/v of oxiconazole, containing a known amount (1 µCi per 30 µl) of radioactive ¹⁴C oxiconazole.
(§6) On human nail discs of 6 mm diameter were mounted 1.5 cm pieces of tubing of 4 mm outer and 3 mm inner diameter, in each of which was poured 30 µl of one of the above lotions (n = 2 x 3). The free (ventral) surfaces of the nail discs were kept moist on a pad soaked in saline.
(§7) After 48 hours of incubation at 30°C and the discs were sectioned (50 µm) parallel to their dorsal surface, using a freeze-microtome. Radioactivity was measured in the separate sections, after which the amount of penetrated oxiconazole was calculated.

[7] = Effect of pretreatment with NAC-containing film-forming lotion on the penetration of oxiconazole in nail discs (Example 7); type: in vitro ADME, Human
Protocol: A 20% w/v NAC-containing film-forming lotion and a control film-forming lotion were prepared as in Example 4.
Human nail discs of 6 mm diameter, resting with their ventral side on pads soaked with saline, were dorsally painted with these film-forming lotions (n = 2 x 3) twice daily during 5 days. Then the six nail discs were rinsed and mounted on pieces of tubing as in Example 6. Subsequently 20 mg of ¹⁴C oxiconazole was added to 30 ml of Oceral® lotion (i.e. 1% oxiconazole in an alcoholic base). Of this, 30 µl was poured into the tubings on top of the dorsal surfaces of the discs as in Example 6. The free (ventral) surfaces of the nail discs were again kept moist on a pad soaked in saline.
(§8) After 48 hours of incubation at 30°C and 60% relative humidity the discs were sectioned (50 µm) parallel to their dorsal surface, using a freeze-microtome. Radioactivity was measured in the separate sections, after which the amount of penetrated oxiconazole was calculated.

[8] = Effect of pretreatment with cream on the penetration of oxiconazole in nail discs (Example 8); type: in vitro ADME, Human; settings: pretreatment with cream twice daily during 5 days, then Oceral lotion (1% oxiconazole) 48 hours at 30°C, 60% relative humidity
Protocol: A NAC-containing cream and a control cream were prepared as in Example 5.
Human nail discs of 6 mm diameter, resting with their ventral side on pads soaked with saline, were dorsally painted with these creams (n = 2 x 3) twice daily during 5 days. Then the six nail discs were rinsed and mounted on pieces of tubing as in Example 6. Subsequently 20 mg of ¹⁴C oxiconazole was added to 30 ml of Oceral® lotion (i.e. 1% oxiconazole in an alcoholic base). Of this, 30 µl was poured into the tubings on top of the dorsal surfaces of the discs as in Example 6. The free (ventral) surfaces of the nail discs were again kept moist on a pad soaked in saline.
as §8

[9] = Comparison of sulfhydryl compounds: weight increase of nail clippings during immersion in a lotion (Example 10); set-up: species or system human; settings: 0.1 M in lotion of 50% v/v ethanol in distilled water
Protocol: as §1
The effects of 0.1 M of each of NAC (pH 2.3), 1,4-dithiothreitol (DTT, not claimed, pH 4.5) and ammonium thioglycolate (ATG, not claimed, pH 9.0), in a lotion consisting of 50% v/v ethanol in distilled water were compared, as in Example 1. The immersion period of the human nail clippings in the control and test lotions was 72 hours.

[10] = type: in vitro ADME, human
Protocol: as §6, §7
To lotions consisting of 50% v/v of ethanol in distilled water were added 0.1 M of NAC (pH 2.3), of 1,4-dithiothreitol (DTT, not claimed, pH 4.5) or of ammonium thioglycolate (ATG, not claimed, pH 9.0), as in Example 10. To all three solutions was also added 1% w/v of oxiconazole, containing a known amount (1 µCi per 30 µl) of radioactive ¹⁴C oxiconazole. These lotions were tested in an experimental set-up as in Examples 6 and 9.

CC(=O)N[C@@H](CS)C(=O)O [NAC, N-acetyl-cysteine]
Average % weight increase during immersion (hours) ([1]; 5 % w/v in lotion, 1 hour): 23%
Average % weight increase during immersion (hours) ([1]; 5 % w/v in lotion, 3 hours): 32%
Average % weight increase during immersion (hours) ([1]; 5 % w/v in lotion, 6 hours): 38%
Average % weight increase during immersion (hours) ([1]; 5 % w/v in lotion, 24 hours): 47%
Average % weight increase during immersion (hours) ([1]; 5 % w/v in lotion, 48 hours): 60%
Average % weight increase during immersion (hours) ([1]; 5 % w/v in lotion, 72 hours): 70%
Average % weight increase during immersion (hours) ([1]; 10 % w/v in lotion, 1 hour): 24%
Average % weight increase during immersion (hours) ([1]; 10 % w/v in lotion, 3 hours): 33%
Average % weight increase during immersion (hours) ([1]; 10 % w/v in lotion, 6 hours): 38%
Average % weight increase during immersion (hours) ([1]; 10 % w/v in lotion, 24 hours): 59%
Average % weight increase during immersion (hours) ([1]; 10 % w/v in lotion, 48 hours): 67%
Average % weight increase during immersion (hours) ([1]; 10 % w/v in lotion, 72 hours): 79%
Average % weight increase during immersion (hours) ([1]; 20 % w/v in lotion, 1 hour): 23%
Average % weight increase during immersion (hours) ([1]; 20 % w/v in lotion, 3 hours): 30%
Average % weight increase during immersion (hours) ([1]; 20 % w/v in lotion, 6 hours): 37%
Average % weight increase during immersion (hours) ([1]; 20 % w/v in lotion, 24 hours): 60%
Average % weight increase during immersion (hours) ([1]; 20 % w/v in lotion, 48 hours): 91%
Average % weight increase during immersion (hours) ([1]; 20 % w/v in lotion, 72 hours): 110%
Average % weight increase during immersion (hours) ([1]; 40 % w/v in lotion, 1 hour): 24%
Average % weight increase during immersion (hours) ([1]; 40 % w/v in lotion, 3 hours): 33%
Average % weight increase during immersion (hours) ([1]; 40 % w/v in lotion, 6 hours): 38%
Average % weight increase during immersion (hours) ([1]; 40 % w/v in lotion, 24 hours): 71%
Average % weight increase during immersion (hours) ([1]; 40 % w/v in lotion, 48 hours): 110%
Average % weight increase during immersion (hours) ([1]; 40 % w/v in lotion, 72 hours): 154%
average penetration of the dye, % of the total nail thickness [2]: 27.5%
average penetration of the dye [3]: 19%
weight increase of clippings [4]: 34%
average penetration of the dye, % of the nail thickness [5]: 48%
average total uptake of oxiconazole (expressed as a % of the total amount of oxiconazole applied) [6]: 4.94%
average radioactivity in the three pads under the discs ([7]; pretreatment with film-forming lotion 5 days, then 14C oxiconazole in Oceral lotion 48 hours): 7.53%
average total uptake of oxiconazole (expressed as a % of the total amount of oxiconazole applied) ([7]; pretreatment with film-forming lotion twice daily during 5 days, then Oceral lotion (1% oxiconazole) 48 hours at 30°C, 60% relative humidity): 3.25%
average total uptake of oxiconazole (expressed as a % of the total amount of oxiconazole applied) [8]: 4.0%
Average % weight increase after immersion during 72 hours [9]: 72%
Average amount of oxiconazole (μg), Total [10]: 15.17 µg
